According to the supplement of paper PMC10307832:

Columns and labels:
Test in all cases: relative viability (nuclei count vs DMSO), 5 days (fraction); higher = more cells survive
[1] = tested on: BEN
Method in brief: (§1)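 Cells from lung cancer lines were seeded into 1536-well plates and, one day later, dosed by pin tool. Treatments were either a single drug or a fixed dose of an anchor drug with five library-drug doses (not always all listed) in √10 steps. After 5 days, nuclei were stained in a one-step fixation (final 0.05% Triton X-100, 1% formaldehyde, 1 ug/ml Hoechst) and counted on 4× images, and relative viability is the treated-to-vehicle nuclei ratio, as the median of duplicate plates.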

[2] = tested on: EKVX
Method in brief: as §1

[3] = tested on: HARA
Method in brief: as §1

[4] = tested on: HCC-366
Method in brief: as §1

[5] = tested on: HCC-44
Method in brief: as §1

[6] = tested on: HCC-827
Method in brief: as §1

[7] = tested on: LC-2-ad
Method in brief: as §1

[8] = tested on: LOU-NH91
Method in brief: as §1

[9] = tested on: NCI-H1355
Method in brief: as §1

[10] = tested on: NCI-H1395
Method in brief: as §1

[11] = tested on: NCI-H1437
Method in brief: as §1

[12] = tested on: NCI-H1734
Method in brief: as §1

[13] = tested on: NCI-H1792
Method in brief: as §1

[14] = tested on: NCI-H2087
Method in brief: as §1

[15] = tested on: NCI-H2170
Method in brief: as §1

[16] = tested on: NCI-H2342
Method in brief: as §1

[17] = tested on: NCI-H2405
Method in brief: as §1

[18] = tested on: NCI-H596
Method in brief: as §1

[19] = tested on: NCI-H647
Method in brief: as §1

**Q.** What does the source list for `Clc1ccc(Nc2nnc(Cc3ccncc3)c3ccccc23)cc1` [Vatalanib] + NC(=O)Nc1cc(-c2cccc(F)c2)sc1C(=O)N[C@H]1CCCNC1 [AZD7762] (partner 0.2 µM)?
**A.** relative viability ([1]; first compound 0.04 µM): 0.676; relative viability ([1]; first compound 0.1265 µM): 0.732; relative viability ([1]; first compound 0.4 µM): 0.596; relative viability ([1]; first compound 1.265 µM): 0.602; relative viability ([1]; first compound 4 µM): 0.685; relative viability ([2]; first compound 0.04 µM): 0.646; relative viability ([2]; first compound 0.1265 µM): 0.623; relative viability ([2]; first compound 0.4 µM): 0.679; relative viability ([2]; first compound 1.265 µM): 0.679; relative viability ([2]; first compound 4 µM): 0.64; relative viability ([3]; first compound 0.04 µM): 0.41; relative viability ([3]; first compound 0.1265 µM): 0.473; relative viability ([3]; first compound 0.4 µM): 0.173; relative viability ([3]; first compound 1.265 µM): 0.246; relative viability ([3]; first compound 4 µM): 0.34; relative viability ([4]; first compound 0.04 µM): 0.325; relative viability ([4]; first compound 0.1265 µM): 0.253; relative viability ([4]; first compound 0.4 µM): 0.32; relative viability ([4]; first compound 1.265 µM): 0.194; relative viability ([4]; first compound 4 µM): 0.226; relative viability ([5]; first compound 0.04 µM): 1.01; relative viability ([5]; first compound 0.1265 µM): 1.03; relative viability ([5]; first compound 0.4 µM): 0.959; relative viability ([5]; first compound 1.265 µM): 0.983; relative viability ([5]; first compound 4 µM): 1; relative viability ([6]; first compound 0.04 µM): 0.187; relative viability ([6]; first compound 0.1265 µM): 0.282; relative viability ([6]; first compound 1.265 µM): 0.183; relative viability ([6]; first compound 4 µM): 0.194; relative viability ([7]; first compound 0.04 µM): 0.897; relative viability ([7]; first compound 0.1265 µM): 0.762; relative viability ([7]; first compound 0.4 µM): 0.92; relative viability ([7]; first compound 1.265 µM): 0.785; relative viability ([7]; first compound 4 µM): 0.817; relative viability ([8]; first compound 0.04 µM): 0.786; relative viability ([8]; first compound 0.1265 µM): 0.691; relative viability ([8]; first compound 0.4 µM): 0.756; relative viability ([8]; first compound 1.265 µM): 0.708; relative viability ([8]; first compound 4 µM): 0.686; relative viability ([9]; first compound 0.04 µM): 0.792; relative viability ([9]; first compound 0.1265 µM): 0.745; relative viability ([9]; first compound 0.4 µM): 0.767; relative viability ([9]; first compound 1.265 µM): 0.578; relative viability ([9]; first compound 4 µM): 0.597; relative viability ([10]; first compound 0.04 µM): 0.381; relative viability ([10]; first compound 0.1265 µM): 0.381; relative viability ([10]; first compound 0.4 µM): 0.389; relative viability ([10]; first compound 4 µM): 0.394; relative viability ([11]; first compound 0.04 µM): 1.07; relative viability ([11]; first compound 0.1265 µM): 1.08; relative viability ([11]; first compound 0.4 µM): 1.18; relative viability ([11]; first compound 1.265 µM): 1.06; relative viability ([11]; first compound 4 µM): 0.997; relative viability ([12]; first compound 0.04 µM): 0.534; relative viability ([12]; first compound 0.1265 µM): 0.484; relative viability ([12]; first compound 0.4 µM): 0.537; relative viability ([12]; first compound 1.265 µM): 0.536; relative viability ([12]; first compound 4 µM): 0.528; relative viability ([13]; first compound 0.04 µM): 0.723; relative viability ([13]; first compound 0.1265 µM): 0.663; relative viability ([13]; first compound 0.4 µM): 0.728; relative viability ([13]; first compound 1.265 µM): 0.503; relative viability ([13]; first compound 4 µM): 0.581; relative viability ([14]; first compound 0.04 µM): 1.28; relative viability ([14]; first compound 0.1265 µM): 1.25; relative viability ([14]; first compound 0.4 µM): 1.4; relative viability ([14]; first compound 1.265 µM): 1.19; relative viability ([14]; first compound 4 µM): 1.15; relative viability ([15]; first compound 0.04 µM): 0.988; relative viability ([15]; first compound 0.1265 µM): 0.77; relative viability ([15]; first compound 0.4 µM): 0.892; relative viability ([15]; first compound 1.265 µM): 0.837; relative viability ([15]; first compound 4 µM): 0.785; relative viability ([16]; first compound 0.04 µM): 0.453; relative viability ([16]; first compound 0.1265 µM): 0.537; relative viability ([16]; first compound 0.4 µM): 0.378; relative viability ([16]; first compound 1.265 µM): 0.484; relative viability ([16]; first compound 4 µM): 0.45; relative viability ([17]; first compound 0.04 µM): 0.799; relative viability ([17]; first compound 0.1265 µM): 0.694; relative viability ([17]; first compound 0.4 µM): 0.725; relative viability ([17]; first compound 4 µM): 0.696; relative viability ([18]; first compound 0.04 µM): 1.11; relative viability ([18]; first compound 0.1265 µM): 1.25; relative viability ([18]; first compound 0.4 µM): 1.18; relative viability ([18]; first compound 1.265 µM): 1.1; relative viability ([18]; first compound 4 µM): 0.907; relative viability ([19]; first compound 0.04 µM): 0.489; relative viability ([19]; first compound 0.1265 µM): 0.45; relative viability ([19]; first compound 0.4 µM): 0.395; relative viability ([19]; first compound 1.265 µM): 0.391; relative viability ([19]; first compound 4 µM): 0.46
